Test results taken from patent US20160129089A1, “COMBINATION THERAPY” (ANTISENSE THERAPEUTICS LTD, priority 2013, published 2016).
e = 2'-O-(2-methoxyethyl) (MOE); d = 2'-deoxy (DNA)

System: human growth hormone receptor mRNA
Experiment: Inhibition of human growth hormone receptor mRNA levels by antisense oligonucleotides, quantitative real-time PCR, MCF7 cells
Assay type: cell-based
Set-up: concentration or dose not given beside the values
Details: averages from three experiments
Experimental: “Target site” indicates the first (5′-most) nucleotide number on the particular target sequence to which the oligonucleotide binds. “% Inhib” indicates the inhibitory effect on hGHR mRNA levels by quantitative real-time PCR. Data are averages from three experiments in which MCF7 cells were treated with the antisense oligonucleotides.
All oligonucelotides in Table 1 are chimeric oligonucleotides (“gapmers”), 20 nucleotides in length, composed of a central “gap” region consisting of ten 2′-deoxynucleotides, which is flanked on both sides (5′ and 3′ directions) by five-nucleotide “wings”. The wings are composed of 2′-methoxyethyl (2′-MOE) nucleotides. The internucleoside (backbone) linkages are phosphorothioate (P═S) throughout the oligonucleotide. All uracils are 5-methyluracils (^MeU). Typically, the oligonucleotide is synthesized using 2-methoxyethyl modified thymidines not 5-methyluracils. All pyrimidines are C5 methylated (i.e., U, T, C are C5 methylated).

| Substance | % INHIB (inhibitory effect on hGHR mRNA levels) |
| --- | --- |
| 272320 (antisense AGATTGTGTTCACCTCCTCT; sugars from the 5' end e5 d10 e5, all phosphorothioate, methylation of C not given here) [compound 272320] | 70% |
| 272321 (antisense AACCCAAGAGTCATCACTGT; sugars from the 5' end e5 d10 e5, all phosphorothioate, methylation of C not given here) [compound 272321] | 64% |
| 272322 (antisense CTGGCTCATCAATATCTAGC; sugars from the 5' end e5 d10 e5, all phosphorothioate, methylation of C not given here) [compound 272322] | 84% |
| 272323 (antisense TGTGTCTGATTCCTCAGTCT; sugars from the 5' end e5 d10 e5, all phosphorothioate, methylation of C not given here) [compound 272323] | 67% |
| 272324 (antisense TATGTCATTGGCATTGAAAT; sugars from the 5' end e5 d10 e5, all phosphorothioate, methylation of C not given here) [compound 272324] | 53% |
| 272325 (antisense AAGGCATAAGAGATCTGCTT; sugars from the 5' end e5 d10 e5, all phosphorothioate, methylation of C not given here) [compound 272325] | 66% |
| 272326 (antisense ACTCAGCTCCTTCAGTAGGA; sugars from the 5' end e5 d10 e5, all phosphorothioate, methylation of C not given here) [compound 272326] | 77% |
| 272327 (antisense GGACATCCCTGCCTTATTCT; sugars from the 5' end e5 d10 e5, all phosphorothioate, methylation of C not given here) [compound 272327] | 60% |
| 272328 (antisense GGCATTGTCCATAAGGAAGT; sugars from the 5' end e5 d10 e5, all phosphorothioate, methylation of C not given here) [compound 272328] | 85% |
| 272329 (antisense ACTTTTTGGCATCTGCCTCA; sugars from the 5' end e5 d10 e5, all phosphorothioate, methylation of C not given here) [compound 272329] | 63% |
| 272330 (antisense GATGCACTTTTTGGCATCTG; sugars from the 5' end e5 d10 e5, all phosphorothioate, methylation of C not given here) [compound 272330] | 47% |
| 272331 (antisense CAGTCGCATTGAGTATGAGG; sugars from the 5' end e5 d10 e5, all phosphorothioate, methylation of C not given here) [compound 272331] | 67% |
| 272332 (antisense CTCTTTGTCAGGCAAGGGCA; sugars from the 5' end e5 d10 e5, all phosphorothioate, methylation of C not given here) [compound 272332] | 75% |
| 272333 (antisense GTGCTCACATAGCCACATGA; sugars from the 5' end e5 d10 e5, all phosphorothioate, methylation of C not given here) [compound 272333] | 72% |
| 272334 (antisense AAGAAAGGCTAAGGCATGAT; sugars from the 5' end e5 d10 e5, all phosphorothioate, methylation of C not given here) [compound 272334] | 61% |
| 272335 (antisense AAATACGTAGCTCTTGGGAA; sugars from the 5' end e5 d10 e5, all phosphorothioate, methylation of C not given here) [compound 272335] | 47% |
| 272336 (antisense CAATCACTGCTACTAAACAG; sugars from the 5' end e5 d10 e5, all phosphorothioate, methylation of C not given here) [compound 272336] | 69% |
| 272337 (antisense AAACATAGCCATTCAATGCT; sugars from the 5' end e5 d10 e5, all phosphorothioate, methylation of C not given here) [compound 272337] | 39% |
| 272338 (antisense GTGCTATGGTTTGCATTCAA; sugars from the 5' end e5 d10 e5, all phosphorothioate, methylation of C not given here) [compound 272338] | 78% |
| 272339 (antisense GTTTTACATATCCAAACTAT; sugars from the 5' end e5 d10 e5, all phosphorothioate, methylation of C not given here) [compound 272339] | 72% |
| 272340 (antisense CATCAACCAAGATTTGGTGA; sugars from the 5' end e5 d10 e5, all phosphorothioate, methylation of C not given here) [compound 272340] | 69% |
| 272341 (antisense GAGGCTATAGATCTTATCTC; sugars from the 5' end e5 d10 e5, all phosphorothioate, methylation of C not given here) [compound 272341] | 65% |
| 272342 (antisense TAGTGAGAAAGAAAGTTTCT; sugars from the 5' end e5 d10 e5, all phosphorothioate, methylation of C not given here) [compound 272342] | 45% |
| 272343 (antisense AATGCTCTCAAGAATGATGT; sugars from the 5' end e5 d10 e5, all phosphorothioate, methylation of C not given here) [compound 272343] | 48% |
| 272344 (antisense ACACTCAATTCTAGCTTTTC; sugars from the 5' end e5 d10 e5, all phosphorothioate, methylation of C not given here) [compound 272344] | 60% |
| 272345 (antisense CATCTATTACAAATAACATG; sugars from the 5' end e5 d10 e5, all phosphorothioate, methylation of C not given here) [compound 272345] | 24% |
